Legend:
SARS-CoV-2 [1] = test: microbe, parasite or virus in culture; settings: Severe acute respiratory syndrome coronavirus 2, Vero C1008, 48 h
in vitro = settings: chlorocebus sabaeus, Vero E6 (Vero C1008) cells
SARS-CoV-2 [2] = test: microbe, parasite or virus in culture; assay type: functional, organism-based, Chlorocebus sabaeus, Vero C1008; settings: Severe acute respiratory syndrome coronavirus 2, Vero C1008, 48 h

Row | Structure (SMILES) | IC50 (SARS-CoV-2 [1]) | IC50 (SARS-CoV-2 [1]; read-out: pIC50 (converted)) | CC50 at 48 h (in vitro; CC50) | CC50 at 48 h (in vitro; pCC50) | IC50 (SARS-CoV-2 [2]; read-out: IC50) | IC50 (SARS-CoV-2 [2]; read-out: pIC50 (converted))
1 | CCN(CCO)CCC[C@H](C)Nc1ccnc2cc(Cl)ccc12 | 12.7 µM | 12.6 µM | > 50.1 µM | > 50.1 µM | ~18.8 µM | ~18.6 µM
2 | CN(C)CCCN1c2ccccc2CCc2ccc(Cl)cc21 [CLOMIPRAMINE] | – | – | 16 µM | 15.8 µM | – | –
3 | COc1ccc2c(c1)N(CC(C)CN(C)C)c1ccccc1S2 (centres undefined) | > 100 µM | > 100 µM | 22.9 µM | 22.9 µM | > 100 µM | > 100 µM
4 | CC(=O)NC1(c2ccccc2)CCN(CCC(CN(C)C(=O)c2ccccc2)c2ccc(Cl)c(Cl)c2)CC1 (centres undefined) | > 100 µM | > 100 µM | 23.4 µM | 23.4 µM | > 100 µM | > 100 µM
5 | CC(Cc1ccc(O)c(O)c1)C(C)Cc1ccc(O)c(O)c1 (centres undefined) [NORDIHYDROGUAIARETIC ACID] | > 100 µM | > 100 µM | 37.2 µM | 37.2 µM | > 100 µM | > 100 µM
6 | CCC1=C[C@@H]2CN(C1)Cc1c([nH]c3ccccc13)[C@@](C(=O)OC)(c1cc3c(cc1OC)N(C)[C@H]1[C@@](O)(C(=O)OC)[C@H](OC(C)=O)[C@]4(CC)C=CCN5CC[C@]31[C@@H]54)C2 [VINORELBINE] | – | – | 14.5 µM | 14.5 µM | > 20 µM | > 20 µM
7 | CSc1ccc2c(c1)N(CCC1CCCCN1C)c1ccccc1S2 (centres undefined) [THIORIDAZINE] | – | – | ~6.38 µM | ~6.31 µM | – | –
8 | COc1ccc(CCN2CCC(Nc3nc4ccccc4n3Cc3ccc(F)cc3)CC2)cc1 [ASTEMIZOLE] | – | – | 7.5 µM | 7.41 µM | – | –
9 | CN1[C@@H]2CC[C@H]1CC(OC(c1ccccc1)c1ccccc1)C2 (some centres undefined) | – | – | ~46.8 µM | ~46.8 µM | – | –
10 | CCC(C)n1ncn(-c2ccc(N3CCN(c4ccc(OCC5COC(Cn6cncn6)(c6ccc(Cl)cc6Cl)O5)cc4)CC3)cc2)c1=O (centres undefined) [ITRACONAZOLE] | > 100 µM | > 100 µM | > 100 µM | > 100 µM | – | –
11 | CC[C@@H](C(=O)[C@@H](C)[C@@H](O)[C@H](C)[C@@H]1O[C@@H]([C@@H](CC)C(=O)O)CC[C@@H]1C)[C@H]1O[C@]2(C=C[C@@H](O)[C@]3(CC[C@@](C)([C@H]4CC[C@](O)(CC)[C@H](C)O4)O3)O2)[C@H](C)C[C@@H]1C [SALINOMYCIN] | > 20 µM | > 20 µM | – | – | 1.29 µM | 1.29 µM
12 | O=C1CCc2ccc(OCCCCN3CCN(c4cccc(Cl)c4Cl)CC3)cc2N1 [ARIPIPRAZOLE] | – | – | 11.4 µM | 11.2 µM | – | –
13 | CN(C)C(=O)C(CCN1CCC(O)(c2ccc(Cl)cc2)CC1)(c1ccccc1)c1ccccc1 [LOPERAMIDE] | – | – | ~22 µM | ~21.9 µM | – | –
14 | CCOc1cc2ncc(C#N)c(Nc3ccc(OCc4ccccn4)c(Cl)c3)c2cc1NC(=O)/C=C/CN(C)C [NERATINIB] | – | – | > 10 µM | > 10 µM | > 10 µM | > 10 µM
15 | COc1cc2c(c(OC)c1OC)-c1ccc(OC)c(=O)cc1[C@@H](NC(C)=O)CC2 [COLCHICINE] | > 100 µM | > 100 µM | – | – | > 100 µM | > 100 µM
16 | CCOC(=O)C1=C(C)NC(C)=C(C(=O)OCC)C1c1ccccc1/C=C/C(=O)OC(C)(C)C [LACIDIPINE] | > 10 µM | > 10 µM | 7.24 µM | 7.24 µM | – | –
17 | CC(C)[C@H](C(=O)Nc1ccc(C(=O)NO)cc1)c1ccccc1 [AR-42] | > 20 µM | > 20 µM | 0.851 µM | 0.851 µM | – | –
18 | COc1ccc(C[C@@H]2c3cc(OC)c(OC)cc3CC[N@+]2(C)CCC(=O)OCCCCCOC(=O)CC[N@@+]2(C)CCc3cc(OC)c(OC)cc3[C@H]2Cc2ccc(OC)c(OC)c2)cc1OC | – | – | > 20 µM | > 20 µM | > 20 µM | > 20 µM
19 | CCOC(=O)O[C@]1(C(=O)OCCl)CC[C@H]2[C@@H]3CCC4=CC(=O)C=C[C@]4(C)[C@H]3[C@@H](O)C[C@@]21C [LOTEPREDNOL ETABONATE] | – | – | > 20 µM | > 20 µM | > 20 µM | > 20 µM

Row | Structure (SMILES) | IC50 (SARS-CoV-2 [1]) | IC50 (SARS-CoV-2 [1]; read-out: pIC50 (converted)) | CC50 at 48 h (in vitro; CC50) | CC50 at 48 h (in vitro; pCC50) | IC50 (SARS-CoV-2 [2]; read-out: IC50) | IC50 (SARS-CoV-2 [2]; read-out: pIC50 (converted))
20 | CCOC(=O)c1c(CSc2ccccc2)n(C)c2cc(Br)c(O)c(CN(C)C)c12 [UMIFENOVIR] | > 100 µM | > 100 µM | – | – | > 100 µM | > 100 µM
21 | Nc1ccn([C@@H]2S[C@H](CO)[C@@H](O)[C@@H]2O)c(=O)n1 [THIARABINE] | > 20 µM | > 20 µM | – | – | ~12.3 µM | ~12.3 µM
22 | CC(C)C(=O)OC[C@H]1O[C@@H](n2cc/c(=N\O)[nH]c2=O)[C@H](O)[C@@H]1O [MOLNUPIRAVIR] | 14.1 µM | 14.1 µM | – | – | ~4.56 µM | ~4.57 µM
23 | CCN(CC)CCOc1ccc(C(=C(Cl)c2ccccc2)c2ccccc2)cc1 [CLOMIPHENE] | > 20 µM | > 20 µM | – | – | > 20 µM | > 20 µM
24 | Nc1ccn([C@@H]2S[C@H](CO)[C@@H](O)[C@H]2F)c(=O)n1 | > 20 µM | > 20 µM | – | – | > 20 µM | > 20 µM
25 | CO/N=C(\C(=O)N[C@@H]1C(=O)N2C(C(=O)OC(C)OC(C)=O)=C(COC(N)=O)CS[C@H]12)c1ccco1 (some centres undefined) [CEFUROXIME AXETIL] | – | – | > 20 µM | > 20 µM | > 20 µM | > 20 µM
26 | O=C1OC2(c3ccc(O)cc3Oc3cc(O)ccc32)c2ccccc21 [FLUORESCEIN] | – | – | > 20 µM | > 20 µM | > 0.309 µM | > 0.309 µM
27 | CN(C)C/C=C(\c1ccc(Br)cc1)c1cccnc1 | > 20 µM | > 20 µM | > 10 µM | > 10 µM | – | –
28 | COc1nc(N)nc2c1ncn2[C@@H]1O[C@H](COP(=O)(N[C@@H](C)C(=O)OCC(C)(C)C)Oc2cccc3ccccc23)[C@@H](O)[C@@]1(C)O (some centres undefined) [BMS-986094] | > 20 µM | > 20 µM | – | – | > 20 µM | > 20 µM
29 | CCOc1nc(N)nc2c1ncn2[C@@H]1O[C@@H]2CO[P@](=O)(OC(C)C)O[C@H]2[C@@]1(C)F | > 20 µM | > 20 µM | – | – | > 50.1 µM | > 50.1 µM
30 | CC(COc1ccccc1)N(CCCl)Cc1ccccc1 (centres undefined) [PHENOXYBENZAMINE] | 20 µM | 20 µM | – | – | > 100 µM | > 100 µM
31 | CN(C)C(=O)COC(=O)Cc1ccc(OC(=O)c2ccc(NC(=N)N)cc2)cc1 [CAMOSTAT] | > 20 µM | > 20 µM | – | – | > 100 µM | > 100 µM
32 | OCCN1CCN(CCCN2c3ccccc3Sc3ccc(C(F)(F)F)cc32)CC1 [FLUPHENAZINE] | – | – | 7.76 µM | 7.76 µM | – | –
33 | CC1(C)S[C@@H]2[C@H](NC(=O)C(C(=O)O)c3ccccc3)C(=O)N2[C@H]1C(=O)O (some centres undefined) [CARBENICILLIN] | – | – | > 20 µM | > 20 µM | > 20 µM | > 20 µM
34 | Cc1nc2ccc(Oc3ccccc3)cc2c2c1CCN2CCc1ccccc1 | > 20 µM | > 20 µM | – | – | ~4.9 µM | ~4.9 µM
35 | CN1CC[C@H](c2c(O)cc(O)c3c(=O)cc(-c4ccccc4Cl)oc23)[C@H](O)C1 [ALVOCIDIB] | > 20 µM | > 20 µM | – | – | > 10 µM | > 10 µM
36 | Cc1c(-c2ccc(-c3ccccc3F)cc2)nc2ccc(F)cc2c1C(=O)O [BREQUINAR] | > 20 µM | > 20 µM | – | – | > 20 µM | > 20 µM
37 | CC[C@@H]1C(=O)N(C)c2cnc(Nc3ccc(C(=O)NC4CCN(C)CC4)cc3OC)nc2N1C1CCCC1 [BI-2536] | – | – | 0.603 µM | 0.603 µM | – | –
38 | c1cc(OCCCN2CCCCC2)ccc1CN1CCCCC1 [JNJ-5207852] | > 20 µM | > 20 µM | – | – | > 20 µM | > 20 µM
